Measurements taken from patent US9408387B2, “Safening 6-amino-2-(substituted phenyl)-5-substituted-4-pyrimidinecarboxylate herbicide injury on cereal crops” (Dow AgroSciences LLC, priority 2009, dated 2016).

Columns and labels:
Format in all cases: in vivo
[1] = tested on: kochia (Kochia scoparia L; KCHSC); experiment: Postemergence herbicidal activity, greenhouse, visual injury: kochia; conditions: 20-22 d
Method: (§1) Evaluation of Postemergence Herbicidal Safening in Cereal Crops
(§2) Seeds of the desired test plant species were planted in Sun Gro MetroMix® 306 planting mixture, which typically has a pH of 6.0 to 6.8 and an organic matter content of about 30 percent, in plastic pots with a surface area of 103.2 square centimeters (cm^2). When required to ensure good germination and healthy plants, a fungicide treatment and/or other chemical or physical treatment was applied. The plants were grown for 7-36 days (d) in a greenhouse with an approximate 14-hour (h) photoperiod which was maintained at about 18° C. during the day and 17° C. during the night. Nutrients and water were added on a regular basis and supplemental lighting was provided with overhead metal halide 1000-Watt lamps as necessary. The plants were employed for testing when they reached the second or third true leaf stage.
(§3) Treatments consisted of the acids or esters of compounds 1-10 and cloquintocet-mexyl (CQC-M), fenchlorazole-ethyl, mefenpyr-diethyl alone and in combination. Weighed amounts of acid or methyl esters of the compounds of formula (I) were dissolved in a volume of 97:3 v/v acetone/dimethylsulfoxide (DMSO) to obtain concentrated solutions. […] The concentrated solutions of the test compound were diluted with the addition of an aqueous mixture containing acetone, water, isopropyl alcohol, DMSO, Agri-Dex crop oil concentrate, and Triton® X-77 surfactant in a 64.7:26.0:6.7:2.0:0.7:0.01 v/v ratio. Test compounds were diluted to the appropriate application rate with a dilution solution which was prepared by mixing the appropriate volume of 97:3 v/v acetone/DMSO and the appropriate volume of an aqueous mixture containing acetone, water, isopropyl alcohol, DMSO, Agri-Dex crop oil concentrate, and Triton® X-77 surfactant in a 64.7:26.0:6.7:2.0:0.7:0.01 v/v ratio. Compound requirements are based upon a 12 mL application volume at a rate of 187 liters per hectare (L/ha). The concentrated solutions of the safener were prepared following the same procedure. Weighed amounts of safener were dissolved in a volume of 97:3 v/v acetone/DMSO to obtain concentrated safener solutions.
(§4) Spray solutions of the herbicide safener and test compound mixtures were prepared by adding the concentrated solutions to the appropriate amount of dilution solution to form 12 mL spray solution with active ingredients in combinations.
(§5) Formulated compounds were applied to the plant material with an overhead Mandel track sprayer equipped with 8002E nozzles calibrated to deliver 187 L/ha over an application area of 0.503 square meters (m^2) at a spray height of 18 inches (43 centimeters (cm)) above average plant canopy. Control plants were sprayed in the same manner with the solvent blank.
(§6) The treated plants and control plants were placed in a greenhouse as described above and watered by sub-irrigation to prevent wash-off of the test compounds. After 20-22 d, the condition of the test plants as compared with that of the control plants was determined visually and scored on a scale of 0 to 100 percent where 0 corresponds to no injury and 100 corresponds to complete kill.
(§7) Colby's equation was used to determine the herbicidal effects expected from the mixtures (Colby, S. R. Calculation of the synergistic and antagonistic response of herbicide combinations. Weeds 1967, 15, 20-22.).
(§8) The following equation was used to calculate the expected activity of mixtures containing two active ingredients, A and B: Expected=A+B−(A×B/100)
(§9) A=observed efficacy of active ingredient A at the same concentration as used in the mixture.
(§10) B=observed efficacy of active ingredient B at the same concentration as used in the mixture.

[2] = tested on: corn poppy (Papaver rhoeas L; PAPRH); experiment: Postemergence herbicidal activity, greenhouse, visual injury: corn poppy; conditions: 20-22 d
Method: as §1, §2, §3, §4, §5, §6, §7, §8, §9, §10

[3] = tested on: spring wheat (Triticum aestivum L; TRZAS); experiment: Postemergence herbicidal safening in cereal crops, greenhouse, visual injury: spring wheat; conditions: Triticum aestivum, post-emergence, 480 h, 20-22 d, read-out: TRZAS Ob (visual injury); for pest or weed control at 35 g/ha: herbicide alone 35 g ae/ha; for pest or weed control at 70 g/ha: herbicide alone 70 g/ha; for pest or weed control at 140 g/ha: herbicide alone 140 g/ha; for pest or weed control at 8.75 g/ha: herbicide alone 8.75 g/ha
Method: as §1, §2, §3, §4, §5, §6, §7, §8, §9, §10

[4] = tested on: purple deadnettle (Lamium purpureum L; LAMPU); experiment: Postemergence herbicidal activity, greenhouse, visual injury: purple deadnettle; conditions: Lamium purpureum, post-emergence, 480 h, 20-22 d, read-out: LAMPU Ob (visual injury); for pest or weed control at 35 g/ha: herbicide alone 35 g ae/ha; for pest or weed control at 70 g/ha: herbicide alone 70 g/ha; for pest or weed control at 140 g/ha: herbicide alone 140 g/ha
Method: as §1, §2, §3, §4, §5, §6, §7, §8, §9, §10

[5] = tested on: spring barley (Hordeum vulgare L; HORVS); experiment: Postemergence herbicidal safening in cereal crops, greenhouse, visual injury: spring barley; conditions: Hordeum vulgare, post-emergence, 480 h, 20-22 d, read-out: HORVS Ob (visual injury); for pest or weed control at 35 g/ha: herbicide alone 35 g ae/ha; for pest or weed control at 70 g/ha: herbicide alone 70 g/ha; for pest or weed control at 140 g/ha: herbicide alone 140 g/ha; for pest or weed control at 8.75 g/ha: herbicide alone 8.75 g/ha
Method: as §1, §2, §3, §4, §5, §6, §7, §8, §9, §10

[6] = tested on: durum wheat (Triticum durum L; TRZDU); experiment: Postemergence herbicidal safening in cereal crops, greenhouse, visual injury: durum wheat; conditions: herbicide alone 8.75 g/ha; 20-22 d
Method: as §1, §2, §3, §4, §5, §6, §7, §8, §9, §10

[7] = tested on: winter barley (Hordeum vulgare L; HORVW); experiment: Postemergence herbicidal safening in cereal crops, greenhouse, visual injury: winter barley; conditions: herbicide alone 8.75 g/ha; 20-22 d
Method: as §1, §2, §3, §4, §5, §6, §7, §8, §9, §10

[8] = tested on: winter wheat (Triticum aestivum L; TRZAW); experiment: Postemergence herbicidal safening in cereal crops, greenhouse, visual injury: winter wheat; conditions: herbicide alone 8.75 g/ha; 20-22 d
Method: as §1, §2, §3, §4, §5, §6, §7, §8, §9, §10

CIRAR = experiment: Postemergence herbicidal activity, greenhouse, visual injury: CIRAR; conditions: 20-22 d
Method: as §1, §2, §3, §4, §5, §6, §7, §8, §9, §10

SASKR = experiment: Postemergence herbicidal activity, greenhouse, visual injury: SASKR; conditions: 20-22 d
Method: as §1, §2, §3, §4, §5, §6, §7, §8, §9, §10

[9] = tested on: bird's-eye speedwell (Veronica persica L; VERPE); experiment: Postemergence herbicidal activity, greenhouse, visual injury: bird's-eye speedwell; conditions: herbicide alone 8.75 g/ha; 20-22 d
Method: as §1, §2, §3, §4, §5, §6, §7, §8, §9, §10

MATCH = experiment: Postemergence herbicidal activity, greenhouse, visual injury: MATCH; conditions: 20-22 d
Method: as §1, §2, §3, §4, §5, §6, §7, §8, §9, §10

Row | Compound | KCHSC Ob (visual injury) ([1]; herbicide alone 70 g/ha) [%] | KCHSC Ob (visual injury) ([1]; herbicide alone 140 g/ha) [%] | PAPRH Ob (visual injury) ([2]; herbicide alone 70 g/ha) [%] | PAPRH Ob (visual injury) ([2]; herbicide alone 140 g/ha) [%] | pest or weed control at 35 g/ha [3] [%] | pest or weed control at 70 g/ha [3] [%] | pest or weed control at 140 g/ha [3] [%] | pest or weed control at 35 g/ha [4] [%] | pest or weed control at 70 g/ha [4] [%] | pest or weed control at 140 g/ha [4] [%] | pest or weed control at 35 g/ha [5] [%] | pest or weed control at 70 g/ha [5] [%] | pest or weed control at 140 g/ha [5] [%] | TRZDU Ob (visual injury) [6] [%] | HORVW Ob (visual injury) [7] [%] | pest or weed control at 8.75 g/ha [3] [%] | TRZAW Ob (visual injury) [8] [%] | pest or weed control at 8.75 g/ha [5] [%] | CIRAR Ob (visual injury) (CIRAR; herbicide alone 70 g/ha) [%] | CIRAR Ob (visual injury) (CIRAR; herbicide alone 140 g/ha) [%] | also measured
1 | COc1c(N)nc(-c2ccc(Cl)c(OC)c2F)nc1C(=O)O [Compound 8, 6-amino-2-(4-chloro-2-fluoro-3-methoxyphenyl)-5-methoxypyrimidine-4-carboxylic acid] | 90 | 100 | 100 | 100 | 83 | 90 | 95 | 100 | 100 | 100 | 75 | 50 | 85 | – | – | – | – | – | – | – | –
2 | COC(=O)c1nc(-c2ccc(Cl)c(OC)c2F)nc(N)c1OC [Compound 4, 6-amino-2-(4-chloro-2-fluoro-3-methoxyphenyl)-5-methoxypyrimidine-4-carboxylic acid methyl ester] | – | – | – | – | 80 | – | – | 100 | – | – | 75 | – | – | 18 | 7 | 33 | 22 | 25 | – | – | –
3 | C=Cc1c(N)nc(-c2ccc(Cl)c(N(C)C)c2F)nc1C(=O)O [Compound 7, 6-amino-2-(4-chloro-3-dimethylamino-2-fluorophenyl)-5-vinylpyrimidine-4-carboxylic acid] | 65 | 75 | – | – | 75 | 60 | 70 | 52 | – | – | 70 | 30 | 45 | – | – | – | – | – | 80 | 85 | SASKR Ob (visual injury) (SASKR; herbicide alone 70 g/ha): 75%; SASKR Ob (visual injury) (SASKR; herbicide alone 140 g/ha): 80%
4 | C=Cc1c(N)nc(-c2ccc(Cl)c(OC)c2F)nc1C(=O)O [Compound 2, 6-amino-2-(4-chloro-2-fluoro-3-methoxyphenyl)-5-vinylpyrimidine-4-carboxylic acid] | – | – | – | – | 80 | – | – | 77 | – | – | 68 | – | – | 30 | 18 | 41 | 43 | 24 | – | – | KCHSC Ob (visual injury) ([1]; herbicide alone 8.75 g/ha): 40%; PAPRH Ob (visual injury) ([2]; herbicide alone 8.75 g/ha): 80%; VERPE Ob (visual injury) [9]: 70%
5 | COc1c(N)nc(-c2ccc(Cl)c(F)c2)nc1C(=O)O [Compound 9, 6-amino-2-(4-chloro-3-fluorophenyl)-5-methoxypyrimidine-4-carboxylic acid] | 100 | 100 | – | – | – | 60 | 70 | – | 95 | 100 | – | 50 | 70 | – | – | – | – | – | – | – | MATCH Ob (visual injury) (MATCH; herbicide alone 70 g/ha): 93%; MATCH Ob (visual injury) (MATCH; herbicide alone 140 g/ha): 97%
6 | C=Cc1c(N)nc(-c2ccc(Cl)c(OC)c2F)nc1C(=O)OC [Compound 5, 6-amino-2-(4-chloro-2-fluoro-3-methoxyphenyl)-5-vinylpyrimidine-4-carboxylic acid methyl ester] | – | – | 89 | 90 | 25 | 18 | 40 | 75 | 95 | 95 | 10 | 8 | 0 | – | – | – | – | – | 84 | 85 | –
